Where two headings read alike, the source gives them in different places.
What was measured:
cellular GLS activity = cellular GLS activity (Homo sapiens (Human), UniProt O94925); experiment: GLS Cell Potency Assay (PC3 coupled assay measuring cellular glutamate depletion); assay type: cell-based; settings: PC3 cells, 6 h incubation, glutamate depletion; read-out: Assay b) GLS cell MOA Mean IC50
Description: (§1) The following assays were used to measure the effects of the compounds described herein: a) GLS Enzyme Potency Assay; b) GLS Cell Potency Assay; c) GLS Cell Proliferation Assay. During the description of the assays, generally: • i. The following abbreviations have been used: CO2=Carbon dioxide; DMEM=Dulbecco's Modified Eagle Medium; DMSO=Dimethyl sulphoxide; EDTA=Ethylenediaminetetraacetic acid; EGTA=Ethylene glycol tetraacetic acid; FCS=Foetal calf serum; h=Hour(s); NBS=Non-binding surface; SDS=Sodium dodecyl sulphate; TRIS=Tris(Hydroxymethyl)aminomethane. • ii. IC50 values were calculated using a smart fitting model in Genedata.
Assay b): GLS Cell Potency Assay
Compounds were assessed for their potential to inhibit cellular GLS activity by use of a PC3 coupled assay measuring cellular glutamate depletion. […] DMSO concentration was maintained at 0.3% by back filling with DMSO solution. PC3 cells were grown in phenol free DMEM, 10% dialyzed FCS, 2 mM glutamine and following dispersal by trypsinisation were plated at 5.6×10^3 cells per well in 40 μl of growth medium directly into the 384 well assay plates containing dispensed compound. After incubation for 6 h at 37° C., 5% CO2 growth media was aspirated and cells lysed in 15 μl of buffer containing 10 mM TRIS pH7.4, 100 mM NaCl, 1 mM EDTA, 1 mM EGTA, 1 mM NaF, 20 mM Na4P2O7, 2 mM Na3VO4, 1% Triton X-100, 10% glycerol, 0.1% SDS and 0.5% deoxycholate.

NCI-H1703 cells = experiment: GLS Cell Proliferation Assay (NCI-H1703 cell proliferation); assay type: cell-based
Description: as §1
Assay c): GLS Cell Proliferation Assay
The ability of compounds to inhibit cell growth was measured using a 384 well plate NCI-H1703 cell proliferation assay. NCI-H1703 cells were grown in phenol red free RPMI1640, 10% FCS and 2 mM glutamine and seeded at a density of 750 cells per well in 40 μl of growth medium into clear-bottom 384 well assay plates (Corning product code 3712) and incubated for 24 h at 37° C., 5% CO2. Test compounds were prepared by dilution in 100% DMSO to give the correct dose range for 12 point concentration response and an appropriate volume (5-120 nl) dispensed directly into the assay plates containing plated cells. DMSO concentration was maintained at 0.3% by back filling with DMSO solution. Plates were incubated for 5 days at 37° C., 5% CO2, Sytox Green and Saponin added to final concentration of 2 μM and 0.25% respectively and incubated for 6 h prior to analysis. Plates were read on an Acumen eX3 (TTP Labtech) using 488 nm excitation and FITC filter set (500-530 nm) for emission. IC50 values were calculated by curve fitting to max inhibition of day zero growth using GeneData software analysis.

GLS1 = GLS1 (Homo sapiens (Human), UniProt O94925); experiment: GLS Enzyme Potency Assay (Glutamate Oxidase/AmplexRed coupled assay); assay type: biochemical; settings: 6His tagged GLS protein (amino acids 63-669), glutamine substrate; read-out: Assay a) enz IC50
Chain of GLS1 (O94925 63-669): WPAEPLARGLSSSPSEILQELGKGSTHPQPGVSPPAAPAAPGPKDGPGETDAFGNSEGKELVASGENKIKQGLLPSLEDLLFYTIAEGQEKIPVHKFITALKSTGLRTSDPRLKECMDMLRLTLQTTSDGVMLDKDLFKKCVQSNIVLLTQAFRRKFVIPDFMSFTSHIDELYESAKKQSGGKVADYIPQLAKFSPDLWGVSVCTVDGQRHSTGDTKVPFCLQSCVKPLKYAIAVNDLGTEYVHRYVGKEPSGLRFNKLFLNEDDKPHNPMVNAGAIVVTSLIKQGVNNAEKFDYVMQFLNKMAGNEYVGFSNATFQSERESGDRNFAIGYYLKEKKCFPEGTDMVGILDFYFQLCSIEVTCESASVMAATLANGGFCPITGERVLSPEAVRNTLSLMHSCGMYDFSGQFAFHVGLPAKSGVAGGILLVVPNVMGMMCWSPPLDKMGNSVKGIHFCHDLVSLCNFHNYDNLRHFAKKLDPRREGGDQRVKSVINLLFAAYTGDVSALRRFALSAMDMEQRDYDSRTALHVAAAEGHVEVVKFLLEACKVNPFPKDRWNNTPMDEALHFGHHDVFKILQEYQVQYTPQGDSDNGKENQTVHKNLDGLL
Description: as §1
Assay a): GLS Enzyme Potency Assay
A Glutamate Oxidase/AmplexRed coupled assay was used to measure the ability of compounds to bind to and inhibit the activity of GLS1 in vitro. […] GLS1 was diluted to 2× working concentration and incubated at room temperature to allow the tetrameric/dimeric forms to reach steady state. Assay measurements were performed in buffer comprising 50 mM TRIS pH 7.8, 100 mM NaPO4, pH 7.8, 0.001% v/v Tween20. Purified recombinant GLS1 protein was diluted in assay buffer to 12 nM and pre-incubated at room temperature for 30 minutes. […] DMSO concentration was maintained at 2% by back filling with DMSO solution. 3 μL of diluted GLS1 protein (12 nM) was then dispensed into each well using a BioRaptr automated dispenser (Beckman-Coulter) and incubated for 15 minutes at room temperature. 3 μL of 100 mM glutamine diluted in assay buffer was then added and the reaction incubated at room temperature for 60 minutes. […] An artefact version of the assay where the 6His tagged GLS protein and glutamine were replaced with assay buffer was also used to rule out non specific effects on the assay components.

[1] = NCI-H1703 cells, 5 days; read-out: Assay c) Prolif Mean IC50
[2] = Homo sapiens, NCI-H1703, 120 h, NCI-H1703 cells, 5 days; read-out: Assay c) Prolif Mean IC50

Chain of cellular GLS activity (O94925 73-669): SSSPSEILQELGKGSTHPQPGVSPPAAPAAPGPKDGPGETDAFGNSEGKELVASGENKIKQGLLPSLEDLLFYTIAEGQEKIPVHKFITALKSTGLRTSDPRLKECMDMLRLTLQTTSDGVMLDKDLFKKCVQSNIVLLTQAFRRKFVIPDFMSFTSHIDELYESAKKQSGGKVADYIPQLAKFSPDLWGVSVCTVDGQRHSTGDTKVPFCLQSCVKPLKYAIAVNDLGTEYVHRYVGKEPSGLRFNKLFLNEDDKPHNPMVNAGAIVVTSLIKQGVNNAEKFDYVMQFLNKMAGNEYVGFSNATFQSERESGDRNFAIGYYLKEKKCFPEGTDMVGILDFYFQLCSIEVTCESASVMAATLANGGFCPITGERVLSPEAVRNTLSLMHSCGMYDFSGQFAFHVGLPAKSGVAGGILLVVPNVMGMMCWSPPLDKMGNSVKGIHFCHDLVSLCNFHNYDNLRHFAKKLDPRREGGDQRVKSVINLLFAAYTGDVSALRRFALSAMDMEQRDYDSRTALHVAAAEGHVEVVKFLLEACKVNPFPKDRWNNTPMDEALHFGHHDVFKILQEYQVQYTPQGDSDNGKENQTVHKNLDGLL

| SMILES | IC50 (cellular GLS activity) | IC50 (NCI-H1703 cells; [1]) | IC50 (GLS1) | IC50 (NCI-H1703 cells; [2]) |
| --- | --- | --- | --- | --- |
| CCOC(C(=O)Nc1nnc(N[C@@H]2CCN(c3ccc(F)nn3)C2)s1)c1ccc(F)cc1 (single isomer, unassigned) [Example 25] | 63.2 nM | 686 nM | 1090 nM | – |
| CCOC(C(=O)Nc1nnc(N[C@@H]2CCN(c3ccc(F)nn3)C2)s1)c1ccc(F)cc1 (single isomer, unassigned) [Example 26] | 2.12 nM | 21.9 nM | 94.8 nM | – |
| CCOC(C(=O)Nc1nnc(N[C@@H]2CCN(c3ccc(C)nn3)C2)s1)c1ccc(F)cc1 (single isomer, unassigned) [Example 27] | 72.2 nM | 1220 nM | 2380 nM | – |
| CCOC(C(=O)Nc1nnc(N[C@@H]2CCN(c3ccc(C)nn3)C2)s1)c1ccc(F)cc1 (single isomer, unassigned) [Example 28] | 3.57 nM | 73.2 nM | 96 nM | – |
| COc1ccc([C@H](OC)C(=O)Nc2nnc(N[C@@H]3CCN(c4cc(C)cnn4)C3)s2)cc1 (single isomer, unassigned) [Example 33(a)] | 19.2 nM | 18.9 nM | 148 nM | – |
| COc1ccc(C(OC)C(=O)Nc2nnc(N[C@@H]3CCN(c4ccc(C)nn4)C3)s2)cc1 (stereo partly drawn) [Example 30, 2-methoxy-2-(4-methoxyphenyl)-N-[5-[[(3R)-1-(6-methylpyridazin-3-yl)pyrrolidin-3-yl]amino]-1,3,4-thiadiazol-2-yl]acetamide] | 5.29 nM | 43.7 nM | 119 nM | – |

More lines, now with the values ahead:

| IC50 (cellular GLS activity) | IC50 (NCI-H1703 cells; [1]) | IC50 (GLS1) | IC50 (NCI-H1703 cells; [2]) | SMILES |
| --- | --- | --- | --- | --- |
| 0.965 nM | – | 30.3 nM | 16.7 nM | CO[C@H](C(=O)Nc1nnc(N[C@@H]2CCN(c3ccc(F)nn3)C2)s1)c1ccccc1 [Example 2, (2S)-N-[5-[[(3R)-1-(6-Fluoropyridazin-3-yl)pyrrolidin-3-yl]amino]-1,3,4-thiadiazol-2-yl]-2-methoxy-2-phenyl-acetamide] |
| 0.451 nM | – | 35.3 nM | 3.07 nM | CO[C@H](C(=O)Nc1nnc(N[C@@H]2CCN(c3cc(Cl)cnn3)C2)s1)c1ccccc1 [Example 12, (2S)-N-[5-[[(3R)-1-(5-Chloropyridazin-3-yl)pyrrolidin-3-yl]amino]-1,3,4-thiadiazol-2-yl]-2-methoxy-2-phenyl-acetamide] |
| 0.658 nM | – | 59.2 nM | 8.48 nM | CO[C@H](C(=O)Nc1nnc(N[C@@H]2CCN(c3cc(C)cnn3)C2)s1)c1ccccc1 [Example 13, (2S)-2-Methoxy-N-[5-[[(3R)-1-(5-methylpyridazin-3-yl)pyrrolidin-3-yl]amino]-1,3,4-thiadiazol-2-yl]-2-phenyl-acetamide] |
| 1.04 nM | – | 44.3 nM | 22.7 nM | CO[C@H](C(=O)Nc1nnc(N[C@@H]2CCN(c3ccc(C)nn3)C2)s1)c1ccccc1 [Example 14, (2S)-2-methoxy-N-[5-[[(3R)-1-(6-methylpyridazin-3-yl)pyrrolidin-3-yl]amino]-1,3,4-thiadiazol-2-yl]-2-phenyl-acetamide] |
